This is an account of results in ChEMBL document CHEMBL1121707, “Synthesis of 2'-deoxy-L-fucopyranosylcarminomycinone and -epsilon-pyrromycinone as well as 2'-deoxy-D-erythro-pentopyranosyldaunomycinone, -carminomycinone, and -epsilon-pyrromycinone” (1981).

Molecules are shown by their SMILES.

The test system of test [1] is Bacillus subtilis. Description: Tested for antibacterial effect against Bacillus subtilis-8 at dose 12.5 ug/mL. Format: functional.
Test [2] has as its system Bacillus subtilis. Description: Tested for antibacterial effect against Bacillus subtilis-8 at dose 25 ug/mL. Format: functional.
In test [3] the test system is Bacillus subtilis. Description: Tested for antibacterial effect against Bacillus subtilis-8 at dose 50 ug/mL. In kind it is functional.
Test [4] concerns Bacillus subtilis. Nature of the test: Tested for antibacterial effect against Bacillus subtilis-8 at dose 6.25 ug/mL. Format: functional.
Test [5] concerns L1210. Description: Median survival time of treated to that of control after administration at 0.4 mg/kg intraperitoneally in BDF1 mice on day 1 in experiment 1. As to conditions: route intraperitoneal. Format: functional, Mus musculus.
In test [6] the test system is L1210. Description: Median survival time of treated to that of control after administration at 0.8 mg/kg intraperitoneally in BDF1 mice on day 1 in experiment 1. In kind it is functional, Mus musculus. Particulars: route intraperitoneal.
The subject of test [7] is L1210. Nature of the test: Median survival time of treated to that of control after administration at 1.6 mg/kg intraperitoneally in BDF1 mice on day 1 in experiment 1. Format: functional, Mus musculus. Particulars: route intraperitoneal.
For test [8], the system named is L1210. Description: Tested for survivors on day 5 after administration at 6.4 mg/kg intraperitoneally in mice on day 1 in experiment 1. Format: functional, Mus musculus. As to conditions: route intraperitoneal.
Test [9] relates to L1210. Description: Median survival time of treated to that of control after administration at 12.8 mg/kg intraperitoneally in BDF1 mice on day 1 in experiment 1. In kind it is functional, Mus musculus. As to conditions: route intraperitoneal.
Test [10] concerns L1210. Nature of the test: Average weight change after administration at 0.4 mg/kg intraperitoneally in mice on day 1 in experiment 1. In kind it is functional, Mus musculus. Particulars: route intraperitoneal.
Test [11] deals with L1210. Description: Average weight change after administration at 0.8 mg/kg intraperitoneally in mice on day 1 in experiment 1. As to conditions: route intraperitoneal. Format: functional, Mus musculus.
The test system of test [12] is L1210. Description: Average weight change after administration at 12.8 mg/kg intraperitoneally in mice on day 1 in experiment 1. In kind it is functional, Mus musculus. As to conditions: route intraperitoneal.
The test system of test [13] is L1210. Description: Average weight change after administration at 3.2 mg/kg intraperitoneally in mice on day 1 in experiment 1. Format: functional, Mus musculus. As to conditions: route intraperitoneal.
The test system of test [14] is L1210. Nature of the test: Average weight change after administration at 6.4 mg/kg intraperitoneally in mice on day 1 in experiment 1. In kind it is functional, Mus musculus. Particulars: route intraperitoneal.
The subject of test [15] is L1210. Nature of the test: Median survival time of treated to that of control after administration at 6.4 mg/kg intraperitoneally in BDF1 mice on day 1 in experiment 1. In kind it is functional, Mus musculus. As to conditions: route intraperitoneal.
Test [16] relates to L1210. Nature of the test: Tested for survivors on day 5 after administration at 12.8 mg/kg intraperitoneally in mice on day 1 in experiment 1. Format: functional, Mus musculus. Particulars: route intraperitoneal.
The test system of test [17] is L1210. Description: Tested for survivors on day 5 after administration at 3.2 mg/kg intraperitoneally in mice on day 1 in experiment 1. In kind it is functional, Mus musculus. Particulars: route intraperitoneal.
Test [18] concerns L1210. Nature of the test: Tested for survivors on day 5 after administration at 0.4 mg/kg intraperitoneally in mice on day 1 in experiment 1. Format: functional, Mus musculus. Particulars: route intraperitoneal.
For test [19], the system named is L1210. Nature of the test: Tested for survivors on day 5 after administration at 0.8 mg/kg intraperitoneally in mice on day 1 in experiment 1. In kind it is functional, Mus musculus. Particulars: route intraperitoneal.
Test [20] concerns L1210. Description: Tested for survivors on day 5 after administration at 1.6 mg/kg intraperitoneally in mice on day 1 in experiment 1. In kind it is functional, Mus musculus. As to conditions: route intraperitoneal.
Test [21] deals with P388. Description: Median survival time of treated to that of control after administration on every 4th day at 6.25 mg/kg intraperitoneally in BDF1 mice. In kind it is functional, Mus musculus. Particulars: route intraperitoneal.
The test system of test [22] is P388. Nature of the test: Tested for survivors on day 5 after administration at 12.5 mg/kg intraperitoneally in mice on day 1 in experiment 2. Particulars: route intraperitoneal. In kind it is functional, Mus musculus.
Test [23] relates to P388. Nature of the test: Tested for survivors on day 5 after administration on every 4th day at 25 mg/kg intraperitoneally in mice. Format: functional, Mus musculus. As to conditions: route intraperitoneal.
For test [24], the system named is P388. Description: Tested for survivors on day 5 after administration on every 4th day at 3.13 mg/kg intraperitoneally in mice. In kind it is functional, Mus musculus. As to conditions: route intraperitoneal.
Test [25] has as its system P388. Description: Tested for survivors on day 5 after administration on every 4th day at 50 mg/kg intraperitoneally in mice. In kind it is functional, Mus musculus. As to conditions: route intraperitoneal.
The test system of test [26] is P388. Description: Median survival time of treated to that of control after administration at 3.13 mg/kg intraperitoneally in BDF1 mice. Format: functional, Mus musculus. As to conditions: route intraperitoneal.
Test [27] concerns P388. Description: Median survival time of treated to that of control after administration on every 4th day at 12.5 mg/kg intraperitoneally in BDF1 mice. Format: functional, Mus musculus. Particulars: route intraperitoneal.
The test system of test [28] is P388. Nature of the test: Median survival time of treated to that of control after administration on every 4th day at 25 mg/kg intraperitoneally in BDF1 mice. Format: functional, Mus musculus. As to conditions: route intraperitoneal.
In test [29] the test system is P388. Nature of the test: Tested for survivors on day 5 after administration on every 4th day at 6.25 mg/kg intraperitoneally in mice. Particulars: route intraperitoneal. In kind it is functional, Mus musculus.
Test [30] has as its system P388. Description: Average weight change after administration at 3.13 mg/kg intraperitoneally in mice. In kind it is functional, Mus musculus. Particulars: route intraperitoneal.
Test [31] deals with P388. Nature of the test: Average weight change after administration on every 4th day at 12.5 mg/kg intraperitoneally in mice. In kind it is functional, Mus musculus. Particulars: route intraperitoneal.
In test [32] the test system is P388. Description: Average weight change after administration on every 4th day at 25 mg/kg intraperitoneally in mice. Format: functional, Mus musculus. As to conditions: route intraperitoneal.
The test system of test [33] is P388. Description: Average weight change after administration on every 4th day at 50 mg/kg intraperitoneally in mice. Format: functional, Mus musculus. Particulars: route intraperitoneal.
Test [34] concerns L1210. Nature of the test: Average weight change after administration at 1.6 mg/kg intraperitoneally in mice on day 1 in experiment 1. In kind it is functional, Mus musculus. Particulars: route intraperitoneal.
Test [35] has as its system L1210. Nature of the test: Median survival time of treated to that of control after administration at 3.2 mg/kg intraperitoneally in BDF1 mice on day 1 in experiment 1. As to conditions: route intraperitoneal. Format: functional, Mus musculus.
In test [36] the test system is P388. Nature of the test: Average weight change after administration on every 4th day at 6.25 mg/kg intraperitoneally in mice. Format: functional, Mus musculus. Particulars: route intraperitoneal.
The subject of test [37] is P388. Description: Median survival time of treated to that of control after administration on every 4th day at 50 mg/kg intraperitoneally in BDF1 mice. In kind it is functional, Mus musculus. As to conditions: route intraperitoneal.
Test [38] has as its system Bacillus subtilis. Description: Tested for antibiotic activity against Bacillus subtilis-ATTCC 6633 at dose 12.5 ug/mL via plate assay. Format: functional.

Consider `COc1cccc2c1C(=O)c1c(O)c3c(c(O)c1C2=O)C[C@@](O)(C(C)=O)C[C@@H]3O[C@H]1C[C@H](O)[C@H](O)CO1`, for which the Inhibition zone came to 12.5 mm with Bacillus subtilis [1], 15.8 mm with Bacillus subtilis [2], 18.8 mm in the test on Bacillus subtilis [3] and 10 mm in the test on Bacillus subtilis [4]. Also, the T/C (usually the ratio of treated to control) came out at 100% with L1210 [5]; 100% in the test with L1210 [6]; 86% with L1210 [7]; 107% with L1210 [9]; 93% in the test with L1210 [15]; 100% with P388 [21]. Moreover, the T/C amounted to 100% in the test with P388 [26]; 112% in the test on P388 [27]; 110% with P388 [28]; 100% with L1210 [35]; 110% in the test with P388 [37]. The Survivors with L1210 [8], in the test with L1210 [16], in the test with L1210 [17], in the test on L1210 [18], in the test with L1210 [19] and in the test on L1210 [20] was 6 in each case. Also, the Survivors in the test with P388 [22], with P388 [23], in the test on P388 [24], in the test on P388 [25] and with P388 [29] was 6 throughout. The Average weight change is recorded as 1.5 in the test with L1210 [10]; 1.8 in the test with L1210 [11]; 2.3 in the test with L1210 [12]; 0.2 with L1210 [13]; 2.4 in the test on L1210 [14]; -2 in the test on P388 [30]. Moreover, the Average weight change in the test on P388 [31] is -1.3; in the test with P388 [32] it was -0.5; in the test on P388 [33], 0.2; with L1210 [34], 2.6; with P388 [36], -1.2.

As to `CC(=O)[C@]1(O)Cc2c(O)c3c(c(O)c2C(O)C1)C(=O)c1c(O)cccc1C3=O` (stereo partly drawn) [CARMINOMYCINONE], in the test on Bacillus subtilis [38], the Inhibition zone was 20.2 mm.
